Measurements taken from PMC8401933 (Molecules, 2021).

Tests used:
Experiment in all cases: KINOMEscan binding
MRCKB = biological target: T1, MRCKB (Homo sapiens, UniProt Q9Y5S2); settings: read-out: Percent Control
T1 construct: purchased Eurofins DiscoverX KINOMEscan

SRPK1 = biological target: T2, SRPK1 (Homo sapiens, UniProt Q96SB4); settings: read-out: Percent Control
T2 construct: purchased Eurofins DiscoverX KINOMEscan

SNRK = biological target: T3, SNRK (Homo sapiens, UniProt Q9NRH2); settings: read-out: Percent Control
T3 construct: purchased Eurofins DiscoverX KINOMEscan

AURKC = biological target: T4, AURKC (Homo sapiens, UniProt Q9UQB9); settings: read-out: Percent Control
T4 construct: purchased Eurofins DiscoverX KINOMEscan

FLT3(D835V) = biological target: T5, FLT3(D835V) (Homo sapiens, UniProt P36888, D835V); settings: read-out: Percent Control
T5 construct: purchased Eurofins DiscoverX KINOMEscan

FLT3(ITD,D835V) = test system: FLT3(ITD,D835V); set-up: species or system human; settings: 10 μM
FLT3(ITD) = test system: FLT3(ITD); set-up: species or system human; settings: 10 μM
DAPK3 = biological target: T6, DAPK3 (Homo sapiens, UniProt O43293); settings: read-out: Percent Control
T6 construct: purchased Eurofins DiscoverX KINOMEscan

DRAK1 = biological target: T7, DRAK1 (Homo sapiens, UniProt Q9UEE5); settings: read-out: Percent Control
T7 construct: purchased Eurofins DiscoverX KINOMEscan

CLK2 = biological target: T8, CLK2 (Homo sapiens, UniProt P49760); settings: read-out: Percent Control
T8 construct: purchased Eurofins DiscoverX KINOMEscan

FLT3(K663Q) = biological target: T9, FLT3(K663Q) (Homo sapiens, UniProt P36888, K663Q); settings: read-out: Percent Control
T9 construct: purchased Eurofins DiscoverX KINOMEscan

DLK = biological target: T10, DLK (Homo sapiens, UniProt Q12852); settings: read-out: Percent Control
T10 construct: purchased Eurofins DiscoverX KINOMEscan

CSNK1E = biological target: T11, CSNK1E (Homo sapiens, UniProt P49674); settings: read-out: Percent Control
T11 construct: purchased Eurofins DiscoverX KINOMEscan

RAF1 = biological target: T12, RAF1 (Homo sapiens, UniProt P04049); settings: read-out: Percent Control
T12 construct: purchased Eurofins DiscoverX KINOMEscan

LKB1 = biological target: T13, LKB1 (Homo sapiens, UniProt Q15831); settings: read-out: Percent Control
T13 construct: purchased Eurofins DiscoverX KINOMEscan

ZAP70 = biological target: T14, ZAP70 (Homo sapiens, UniProt P43403); settings: read-out: Percent Control
T14 construct: purchased Eurofins DiscoverX KINOMEscan

PIP5K2C = biological target: T15, PIP5K2C (Homo sapiens, UniProt Q8TBX8); settings: read-out: Percent Control
T15 construct: purchased Eurofins DiscoverX KINOMEscan

VRK2 = biological target: T16, VRK2 (Homo sapiens, UniProt Q86Y07); settings: read-out: Percent Control
T16 construct: purchased Eurofins DiscoverX KINOMEscan

TESK1 = biological target: T17, TESK1 (Homo sapiens, UniProt Q15569); settings: read-out: Percent Control
T17 construct: purchased Eurofins DiscoverX KINOMEscan

S6K1 = biological target: T18, S6K1 (Homo sapiens, UniProt P23443); settings: read-out: Percent Control
T18 construct: purchased Eurofins DiscoverX KINOMEscan

HPK1 = biological target: T19, HPK1 (Homo sapiens, UniProt Q92918); settings: read-out: Percent Control
T19 construct: purchased Eurofins DiscoverX KINOMEscan

FGFR3(G697C) = biological target: T20, FGFR3(G697C) (Homo sapiens, UniProt P22607, G697C); settings: read-out: Percent Control
T20 construct: purchased Eurofins DiscoverX KINOMEscan

MEK3 = biological target: T21, MEK3 (Homo sapiens, UniProt P46734); settings: read-out: Percent Control
T21 construct: purchased Eurofins DiscoverX KINOMEscan

DCAMKL1 = biological target: T22, DCAMKL1 (Homo sapiens, UniProt O15075); settings: read-out: Percent Control
T22 construct: purchased Eurofins DiscoverX KINOMEscan

KIT(D816H) = biological target: T23, KIT(D816H) (Homo sapiens, UniProt P10721, D816H); settings: read-out: Percent Control
T23 construct: purchased Eurofins DiscoverX KINOMEscan

MAP3K15 = biological target: T24, MAP3K15 (Homo sapiens, UniProt Q6ZN16); settings: read-out: Percent Control
T24 construct: purchased Eurofins DiscoverX KINOMEscan

TNK2 = biological target: T25, TNK2 (Homo sapiens, UniProt Q07912); settings: read-out: Percent Control
T25 construct: purchased Eurofins DiscoverX KINOMEscan

CTK = biological target: T26, CTK (Homo sapiens, UniProt P42679); settings: read-out: Percent Control
T26 construct: purchased Eurofins DiscoverX KINOMEscan

MEK2 = biological target: T27, MEK2 (Homo sapiens, UniProt P36507); settings: read-out: Percent Control
T27 construct: purchased Eurofins DiscoverX KINOMEscan

SRC = biological target: T28, SRC (Homo sapiens, UniProt P12931); settings: read-out: Percent Control
T28 construct: purchased Eurofins DiscoverX KINOMEscan

EPHA8 = biological target: T29, EPHA8 (Homo sapiens, UniProt P29322); settings: read-out: Percent Control
T29 construct: purchased Eurofins DiscoverX KINOMEscan

CSNK1A1L = biological target: T30, CSNK1A1L (Homo sapiens, UniProt Q8N752); settings: read-out: Percent Control
T30 construct: purchased Eurofins DiscoverX KINOMEscan

ULK3 = biological target: T31, ULK3 (Homo sapiens, UniProt Q6PHR2); settings: read-out: Percent Control
T31 construct: purchased Eurofins DiscoverX KINOMEscan

[1] = biological target: T32, RPS6KA4(Kin.Dom.2-C-terminal) (Homo sapiens, UniProt O75676); settings: read-out: Percent Control
T32 construct: RPS6KA4(Kin.Dom.2-C-terminal); purchased Eurofins DiscoverX KINOMEscan

KIT(V559D,V654A) = biological target: T33, KIT(V559D,V654A) (Homo sapiens, UniProt P10721, V559D/V654A); settings: read-out: Percent Control
T33 construct: purchased Eurofins DiscoverX KINOMEscan

[2] = biological target: T34, ABL1(T315I)-nonphosphorylated (Homo sapiens, UniProt P00519, T315I); settings: read-out: Percent Control
T34 construct: purchased Eurofins DiscoverX KINOMEscan

EPHA4 = biological target: T35, EPHA4 (Homo sapiens, UniProt P54764); settings: read-out: Percent Control
T35 construct: purchased Eurofins DiscoverX KINOMEscan

CAMKK1 = biological target: T36, CAMKK1 (Homo sapiens, UniProt Q8N5S9); settings: read-out: Percent Control
T36 construct: purchased Eurofins DiscoverX KINOMEscan

MYO3A = biological target: T37, MYO3A (Homo sapiens, UniProt Q8NEV4); settings: read-out: Percent Control
T37 construct: purchased Eurofins DiscoverX KINOMEscan

CDK8 = biological target: T38, CDK8 (Homo sapiens, UniProt P49336); settings: read-out: Percent Control
T38 construct: purchased Eurofins DiscoverX KINOMEscan

CHEK1 = biological target: T39, CHEK1 (Homo sapiens, UniProt O14757); settings: read-out: Percent Control
T39 construct: purchased Eurofins DiscoverX KINOMEscan

p38-alpha = biological target: T40, p38-alpha (Homo sapiens, UniProt Q16539); settings: read-out: Percent Control
T40 construct: purchased Eurofins DiscoverX KINOMEscan

PRKG1 = biological target: T41, PRKG1 (Homo sapiens, UniProt Q13976); settings: read-out: Percent Control
T41 construct: purchased Eurofins DiscoverX KINOMEscan

RIPK4 = biological target: T42, RIPK4 (Homo sapiens, UniProt P57078); settings: read-out: Percent Control
T42 construct: purchased Eurofins DiscoverX KINOMEscan

T40 sequence (Q16539 whole entry): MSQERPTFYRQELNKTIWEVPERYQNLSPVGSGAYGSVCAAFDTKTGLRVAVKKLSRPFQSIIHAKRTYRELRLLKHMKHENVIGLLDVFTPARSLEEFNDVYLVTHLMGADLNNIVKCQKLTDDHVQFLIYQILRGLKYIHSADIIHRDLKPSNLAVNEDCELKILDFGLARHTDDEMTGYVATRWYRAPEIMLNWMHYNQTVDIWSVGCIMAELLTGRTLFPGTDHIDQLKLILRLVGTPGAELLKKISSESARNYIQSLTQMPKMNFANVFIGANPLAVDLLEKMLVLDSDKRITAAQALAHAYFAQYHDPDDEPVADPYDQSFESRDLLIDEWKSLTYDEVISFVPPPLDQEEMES
T24 sequence (Q6ZN16 whole entry): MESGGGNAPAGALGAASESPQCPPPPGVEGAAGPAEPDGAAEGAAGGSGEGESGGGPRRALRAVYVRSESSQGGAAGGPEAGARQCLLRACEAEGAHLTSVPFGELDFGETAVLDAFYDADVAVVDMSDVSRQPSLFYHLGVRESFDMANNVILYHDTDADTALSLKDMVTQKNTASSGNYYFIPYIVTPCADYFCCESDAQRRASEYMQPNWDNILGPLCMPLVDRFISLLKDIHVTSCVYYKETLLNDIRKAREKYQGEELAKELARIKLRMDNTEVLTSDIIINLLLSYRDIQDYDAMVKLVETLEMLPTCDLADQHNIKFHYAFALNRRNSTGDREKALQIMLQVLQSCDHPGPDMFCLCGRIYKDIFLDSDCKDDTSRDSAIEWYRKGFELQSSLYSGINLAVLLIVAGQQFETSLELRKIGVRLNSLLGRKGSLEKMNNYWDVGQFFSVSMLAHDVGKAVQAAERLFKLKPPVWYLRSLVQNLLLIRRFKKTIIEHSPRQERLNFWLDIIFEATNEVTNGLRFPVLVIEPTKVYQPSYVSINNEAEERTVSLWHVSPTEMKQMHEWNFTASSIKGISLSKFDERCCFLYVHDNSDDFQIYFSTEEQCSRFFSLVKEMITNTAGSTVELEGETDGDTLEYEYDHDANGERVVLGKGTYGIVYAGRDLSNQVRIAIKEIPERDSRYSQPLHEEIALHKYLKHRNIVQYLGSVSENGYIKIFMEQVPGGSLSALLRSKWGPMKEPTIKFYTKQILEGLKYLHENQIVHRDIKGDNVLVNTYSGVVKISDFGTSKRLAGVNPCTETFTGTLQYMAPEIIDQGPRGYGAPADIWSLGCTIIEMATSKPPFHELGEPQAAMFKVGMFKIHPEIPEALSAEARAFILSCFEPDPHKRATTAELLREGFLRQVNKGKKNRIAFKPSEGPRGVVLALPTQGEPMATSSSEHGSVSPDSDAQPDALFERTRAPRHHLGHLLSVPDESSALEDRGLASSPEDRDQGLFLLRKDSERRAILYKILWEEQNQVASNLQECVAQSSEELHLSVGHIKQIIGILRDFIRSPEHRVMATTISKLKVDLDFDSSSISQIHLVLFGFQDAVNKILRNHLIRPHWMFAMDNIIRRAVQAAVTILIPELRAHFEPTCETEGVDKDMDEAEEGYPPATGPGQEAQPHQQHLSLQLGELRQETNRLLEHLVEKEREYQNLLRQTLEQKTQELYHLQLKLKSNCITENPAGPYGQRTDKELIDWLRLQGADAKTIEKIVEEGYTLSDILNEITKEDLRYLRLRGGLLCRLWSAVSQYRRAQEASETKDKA
T2 sequence (Q96SB4 whole entry): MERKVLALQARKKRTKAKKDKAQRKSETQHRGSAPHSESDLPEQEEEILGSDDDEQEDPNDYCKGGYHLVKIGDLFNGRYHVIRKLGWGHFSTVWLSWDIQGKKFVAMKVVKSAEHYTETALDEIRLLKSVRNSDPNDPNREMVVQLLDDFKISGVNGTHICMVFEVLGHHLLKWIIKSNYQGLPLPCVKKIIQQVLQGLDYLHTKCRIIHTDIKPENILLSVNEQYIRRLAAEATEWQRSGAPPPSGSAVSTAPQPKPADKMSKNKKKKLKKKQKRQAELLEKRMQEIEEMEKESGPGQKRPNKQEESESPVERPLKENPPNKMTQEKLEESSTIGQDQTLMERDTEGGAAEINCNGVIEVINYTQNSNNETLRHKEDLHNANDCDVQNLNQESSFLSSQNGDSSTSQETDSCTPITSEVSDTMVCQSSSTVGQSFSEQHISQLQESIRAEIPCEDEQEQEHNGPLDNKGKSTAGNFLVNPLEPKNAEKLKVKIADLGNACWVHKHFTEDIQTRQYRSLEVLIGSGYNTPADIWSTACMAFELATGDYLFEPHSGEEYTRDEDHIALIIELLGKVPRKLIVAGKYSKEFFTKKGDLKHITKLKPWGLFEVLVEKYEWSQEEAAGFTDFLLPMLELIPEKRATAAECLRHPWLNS
T1 sequence (Q9Y5S2 whole entry): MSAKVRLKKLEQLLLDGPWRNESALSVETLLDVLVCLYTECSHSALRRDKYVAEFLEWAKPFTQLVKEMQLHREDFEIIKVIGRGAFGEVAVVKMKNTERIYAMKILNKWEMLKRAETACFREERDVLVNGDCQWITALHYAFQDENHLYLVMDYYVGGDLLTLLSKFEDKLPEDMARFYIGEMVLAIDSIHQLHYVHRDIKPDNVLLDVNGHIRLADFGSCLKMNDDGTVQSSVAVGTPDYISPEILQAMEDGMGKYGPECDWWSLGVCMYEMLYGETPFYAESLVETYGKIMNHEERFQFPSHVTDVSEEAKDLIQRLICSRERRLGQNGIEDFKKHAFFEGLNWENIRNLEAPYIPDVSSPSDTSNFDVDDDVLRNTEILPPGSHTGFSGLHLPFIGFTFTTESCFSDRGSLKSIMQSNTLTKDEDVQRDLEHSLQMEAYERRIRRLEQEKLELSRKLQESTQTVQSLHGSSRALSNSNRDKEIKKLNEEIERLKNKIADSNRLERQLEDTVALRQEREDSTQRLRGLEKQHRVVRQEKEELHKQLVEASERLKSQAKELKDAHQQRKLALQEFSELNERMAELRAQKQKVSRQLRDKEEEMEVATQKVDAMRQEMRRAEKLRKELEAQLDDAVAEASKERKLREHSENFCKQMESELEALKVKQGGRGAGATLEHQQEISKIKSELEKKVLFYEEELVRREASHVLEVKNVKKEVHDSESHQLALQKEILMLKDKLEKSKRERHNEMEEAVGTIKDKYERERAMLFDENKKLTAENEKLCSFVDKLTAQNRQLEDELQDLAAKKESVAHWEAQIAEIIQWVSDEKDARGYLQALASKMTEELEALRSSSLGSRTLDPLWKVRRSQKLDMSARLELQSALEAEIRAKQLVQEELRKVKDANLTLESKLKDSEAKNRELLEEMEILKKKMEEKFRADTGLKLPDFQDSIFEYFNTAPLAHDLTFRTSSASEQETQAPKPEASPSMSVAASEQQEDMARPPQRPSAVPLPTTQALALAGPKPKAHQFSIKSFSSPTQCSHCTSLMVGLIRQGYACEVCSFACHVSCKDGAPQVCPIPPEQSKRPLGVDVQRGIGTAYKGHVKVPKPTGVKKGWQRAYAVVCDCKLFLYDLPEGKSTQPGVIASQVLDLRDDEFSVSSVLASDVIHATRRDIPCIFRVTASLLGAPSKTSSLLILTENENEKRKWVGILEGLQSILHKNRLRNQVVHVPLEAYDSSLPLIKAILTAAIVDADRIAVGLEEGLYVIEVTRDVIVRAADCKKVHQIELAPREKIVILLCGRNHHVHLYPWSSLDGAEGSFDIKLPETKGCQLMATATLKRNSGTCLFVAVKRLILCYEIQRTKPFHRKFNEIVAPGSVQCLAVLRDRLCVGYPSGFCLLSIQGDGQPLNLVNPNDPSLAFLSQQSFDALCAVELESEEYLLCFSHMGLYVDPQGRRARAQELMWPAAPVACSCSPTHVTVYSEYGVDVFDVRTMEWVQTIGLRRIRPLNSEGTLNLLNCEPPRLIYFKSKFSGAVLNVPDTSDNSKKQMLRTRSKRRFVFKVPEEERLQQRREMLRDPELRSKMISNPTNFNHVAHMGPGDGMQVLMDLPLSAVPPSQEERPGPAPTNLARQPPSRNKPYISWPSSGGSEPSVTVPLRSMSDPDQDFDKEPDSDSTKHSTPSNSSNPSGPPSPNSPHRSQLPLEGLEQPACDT
T12 sequence (P04049 whole entry): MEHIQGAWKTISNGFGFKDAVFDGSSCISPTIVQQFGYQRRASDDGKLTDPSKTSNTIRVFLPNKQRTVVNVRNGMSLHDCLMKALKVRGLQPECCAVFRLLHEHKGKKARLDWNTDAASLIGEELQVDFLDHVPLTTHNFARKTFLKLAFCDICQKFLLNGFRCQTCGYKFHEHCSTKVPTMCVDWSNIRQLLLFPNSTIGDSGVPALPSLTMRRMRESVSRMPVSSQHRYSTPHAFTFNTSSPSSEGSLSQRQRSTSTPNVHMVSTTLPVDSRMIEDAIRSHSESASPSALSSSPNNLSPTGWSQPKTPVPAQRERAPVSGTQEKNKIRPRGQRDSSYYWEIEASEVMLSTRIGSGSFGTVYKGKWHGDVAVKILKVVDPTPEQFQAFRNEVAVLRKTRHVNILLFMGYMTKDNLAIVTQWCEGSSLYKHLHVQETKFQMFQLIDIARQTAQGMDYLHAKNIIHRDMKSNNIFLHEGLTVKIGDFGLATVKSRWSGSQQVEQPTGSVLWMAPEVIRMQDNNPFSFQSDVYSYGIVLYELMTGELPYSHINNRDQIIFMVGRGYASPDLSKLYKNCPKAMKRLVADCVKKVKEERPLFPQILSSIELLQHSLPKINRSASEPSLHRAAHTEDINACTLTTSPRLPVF
T7 sequence (Q9UEE5 whole entry): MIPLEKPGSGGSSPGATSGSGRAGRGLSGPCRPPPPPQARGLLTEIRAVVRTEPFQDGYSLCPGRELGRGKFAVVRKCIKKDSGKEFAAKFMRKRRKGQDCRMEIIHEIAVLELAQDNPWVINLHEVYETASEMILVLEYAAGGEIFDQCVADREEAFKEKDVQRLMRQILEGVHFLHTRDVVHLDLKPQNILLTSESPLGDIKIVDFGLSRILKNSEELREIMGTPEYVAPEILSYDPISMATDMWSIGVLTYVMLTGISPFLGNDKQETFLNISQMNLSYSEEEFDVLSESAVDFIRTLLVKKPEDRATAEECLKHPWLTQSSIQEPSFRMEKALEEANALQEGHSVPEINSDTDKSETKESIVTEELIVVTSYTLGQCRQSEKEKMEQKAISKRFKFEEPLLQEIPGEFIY

Question: Which results are given for `CC(C)NC(=O)COc1cccc(-c2nc(Nc3ccc4[nH]ncc4c3)c3ccccc3n2)c1` [KD025, 2-(3-(4-((1H-indazol-5-yl)amino)quinazolin-2-yl)phenoxy)-N-isopropylacetamide]?
Answer: remaining binding at 10 µM (MRCKB): 1%; remaining binding at 10 µM (SRPK1): 7%; remaining binding at 10 µM (SNRK): 14%; remaining binding at 10 µM (AURKC): 18%; remaining binding at 10 µM (FLT3(D835V)): 23%; Percent Control (FLT3(ITD,D835V)): 28%; Percent Control (FLT3(ITD)): 31%; remaining binding at 10 µM (DAPK3): 35%; remaining binding at 10 µM (DRAK1): 39%; remaining binding at 10 µM (CLK2): 51%; remaining binding at 10 µM (FLT3(K663Q)): 55%; remaining binding at 10 µM (DLK): 58%; remaining binding at 10 µM (CSNK1E): 61%; remaining binding at 10 µM (RAF1): 62%; remaining binding at 10 µM (LKB1): 63%; remaining binding at 10 µM (ZAP70): 63%; remaining binding at 10 µM (PIP5K2C): 71%; remaining binding at 10 µM (VRK2): 71%; remaining binding at 10 µM (TESK1): 73%; remaining binding at 10 µM (S6K1): 74%; remaining binding at 10 µM (HPK1): 76%; remaining binding at 10 µM (FGFR3(G697C)): 77%; remaining binding at 10 µM (MEK3): 77%; remaining binding at 10 µM (DCAMKL1): 79%; remaining binding at 10 µM (KIT(D816H)): 81%; remaining binding at 10 µM (MAP3K15): 82%; remaining binding at 10 µM (TNK2): 82%; remaining binding at 10 µM (CTK): 83%; remaining binding at 10 µM (MEK2): 86%; remaining binding at 10 µM (SRC): 87%; remaining binding at 10 µM (EPHA8): 88%; remaining binding at 10 µM (CSNK1A1L): 89%; remaining binding at 10 µM (ULK3): 90%; remaining binding at 10 µM [1]: 91%; remaining binding at 10 µM (KIT(V559D,V654A)): 92%; remaining binding at 10 µM [2]: 93%; remaining binding at 10 µM (EPHA4): 93%; remaining binding at 10 µM (CAMKK1): 94%; remaining binding at 10 µM (MYO3A): 94%; remaining binding at 10 µM (CDK8): 98%; remaining binding at 10 µM (CHEK1): 100%; remaining binding at 10 µM (p38-alpha): 100%; remaining binding at 10 µM (PRKG1): 100%; remaining binding at 10 µM (RIPK4): 100%
